Key:
Assay type in all cases: in vivo
[1] = system: kochia (Kochia scoparia); assay: Test C greenhouse herbicide test, postemergence
In short: (§1)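 Seedlings are raised in pots of peat moss–vermiculite medium with starter nutrients, then receive postemergence test chemical at the 1- to 4-leaf stage. They are kept in the greenhouse 13 to 15 d and scored visually versus controls, 0 meaning no effect and 100 complete control.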

[2] = system: oat, wild (wild oat, Avena fatua); assay: Test C greenhouse herbicide test, postemergence
In short: as §1

[3] = system: soybean (Glycine max); assay: Test C greenhouse herbicide test, pre- and postemergence
In short: (§2)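 Visual ratings on a 0 to 100 scale (0 = no effect, 100 = complete control) versus untreated controls, scored 13–15 d after treatment. Soil-applied preemergence to seeded loam/sand; foliar postemergence to 1- to 4-leaf plants (2–18 cm) in peat-vermiculite mix; compounds formulated in solvent plus surfactant.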

[4] = system: ragweed (common ragweed, Ambrosia elatior); assay: as above
In short: as §2

[5] = system: waterhemp (common waterhemp, Amaranthus rudis); assay: as above
In short: as §2

[6] = system: wheat (winter wheat, Triticum aestivum); assay: as above
In short: as §2

[7] = system: corn (Zea mays); assay: as above
In short: as §2

[8] = system: johnsongrass (Sorghum halepense); assay: as above
In short: as §2

[9] = system: velvetleaf (Abutilon theophrasti); assay: as above
In short: as §2

[10] = system: galium (catchweed bedstraw, Galium aparine); assay: as above
In short: as §2

[11] = system: oilseed rape (Brassica napus); assay: as above
In short: as §2

[12] = system: barnyardgrass (Echinochloa crus-galli); assay: as above
In short: as §2

[13] = system: morningglory (Ipomoea coccinea); assay: as above
In short: as §2

[14] = system: pigweed (Amaranthus retroflexus); assay: as above
In short: as §2

[15] = system: crabgrass, large (large crabgrass, Digitaria sanguinalis); assay: as above
In short: as §2

[16] = system: blackgrass (Alopecurus myosuroides); assay: as above
In short: as §2

[17] = system: foxtail, giant (giant foxtail, Setaria faberii); assay: as above
In short: as §2

[18] = Postemergence, 31 g ai/ha, 0 to 100 scale (0 no effect, 100 complete control)
[19] = Postemergence, 125 g ai/ha, scale 0 to 100, 0 is no effect, 100 is complete control
[20] = Postemergence, 250 g ai/ha, scale 0 to 100, 0 no effect, 100 complete control, 13 to 15 d
[21] = postemergence, 62 g ai/ha, scale 0 to 100, 0 no effect, 100 complete control
[22] = Preemergence, 31 g ai/ha, scale 0 to 100, 0 is no effect, 100 is complete control
[23] = Preemergence, 62 g ai/ha, scale 0 to 100, 0 is no effect, 100 is complete control
[24] = Preemergence, 125 g ai/ha, scale 0 to 100, 0 is no effect, 100 is complete control
[25] = Preemergence, 250 g ai/ha, scale 0 to 100 (0 no effect, 100 complete control)

Cc1ccc2ccccc2c1-c1c(O)c(C)nn(C)c1=O [Compound 59]
20: Wheat plant response rating [6, 21] | Plant response rating, Corn [7, 23] | Barnyardgrass plant response rating [12, 18] | Crabgrass, Large plant response rating [15, 21]
90: Plant response rating, Kochia [1, 20] | Plant response rating, Oat, Wild [2, 19] | Ragweed plant response rating [4, 18] | Plant response rating, Ragweed [4, 22] | Waterhemp plant response rating [5, 21] | Plant response rating, Velvetleaf [9, 19] | Plant response rating, Velvetleaf [9, 23] | Plant response rating, Barnyardgrass [12, 24] | Pigweed plant response rating [14, 18] | Plant response rating, Blackgrass [16, 20] | Plant response rating, Blackgrass [16, 23] | Plant response rating, Blackgrass [16, 24] | Plant response rating, Foxtail, Giant [17, 20]
10: Plant response rating, Soybean [3, 19] | Plant response rating, Wheat [6, 19]
70: Plant response rating, Barnyardgrass [12, 20] | Plant response rating, Barnyardgrass [12, 23] | Plant response rating, Crabgrass, Large [15, 23]
98: Plant response rating, Oat, Wild [2, 20] | Plant response rating, Ragweed [4, 20] | Plant response rating, Waterhemp [5, 19] | Plant response rating, Velvetleaf [9, 24] | Plant response rating, Galium [10, 19] | Plant response rating, Galium [10, 20] | Plant response rating, Galium [10, 22] | Plant response rating, Galium [10, 24] | Galium plant response rating [10, 25] | Galium plant response rating [10, 21] | Plant response rating, Morningglory [13, 22] | Plant response rating, Pigweed [14, 20] | Blackgrass plant response rating [16, 25] | Plant response rating, Foxtail, Giant [17, 24]
55: Plant response rating, Oilseed Rape [11, 20] | Plant response rating, Barnyardgrass [12, 19]
85: Plant response rating, Kochia [1, 19] | Kochia plant response rating [1, 21] | Waterhemp plant response rating [5, 18] | Wheat plant response rating [6, 25] | Plant response rating, Velvetleaf [9, 22] | Velvetleaf plant response rating [9, 21] | Plant response rating, Crabgrass, Large [15, 24] | Plant response rating, Blackgrass [16, 19] | Plant response rating, Blackgrass [16, 22] | Plant response rating, Foxtail, Giant [17, 19]
45: Corn plant response rating [7, 21] | Plant response rating, Johnsongrass [8, 24] | Foxtail, Giant plant response rating [17, 18]
0: Soybean plant response rating [3, 18] | Plant response rating, Soybean [3, 22] | Plant response rating, Soybean [3, 23] | Wheat plant response rating [6, 18] | Plant response rating, Corn [7, 22]
5: Corn plant response rating [7, 18] | Johnsongrass plant response rating [8, 18] | Plant response rating, Johnsongrass [8, 22] | Johnsongrass plant response rating [8, 21] | Oilseed Rape plant response rating [11, 18]
15: Plant response rating, Soybean [3, 24] | Soybean plant response rating [3, 21] | Plant response rating, Wheat [6, 20] | Crabgrass, Large plant response rating [15, 18]
50: Plant response rating, Corn [7, 20] | Plant response rating, Corn [7, 24] | Oilseed Rape plant response rating [11, 21]
80: Oat, Wild plant response rating [2, 18] | Velvetleaf plant response rating [9, 18] | Plant response rating, Oilseed Rape [11, 23] | Blackgrass plant response rating [16, 21] | Plant response rating, Foxtail, Giant [17, 22]
35: Plant response rating, Johnsongrass [8, 20]
25: Plant response rating, Soybean [3, 20] | Soybean plant response rating [3, 25] | Plant response rating, Johnsongrass [8, 19] | Plant response rating, Johnsongrass [8, 23] | Plant response rating, Crabgrass, Large [15, 19] | Plant response rating, Crabgrass, Large [15, 22]
65: Plant response rating, Corn [7, 19] | Corn plant response rating [7, 25] | Johnsongrass plant response rating [8, 25] | Plant response rating, Oilseed Rape [11, 22] | Blackgrass plant response rating [16, 18]
60: Plant response rating, Wheat [6, 22] | Plant response rating, Wheat [6, 23] | Plant response rating, Crabgrass, Large [15, 20] | Foxtail, Giant plant response rating [17, 21]
100: Plant response rating, Ragweed [4, 24] | Ragweed plant response rating [4, 25] | Plant response rating, Waterhemp [5, 20] | Plant response rating, Waterhemp [5, 23] | Plant response rating, Waterhemp [5, 24] | Waterhemp plant response rating [5, 25] | Velvetleaf plant response rating [9, 25] | Plant response rating, Morningglory [13, 19] | Plant response rating, Morningglory [13, 20] | Plant response rating, Morningglory [13, 23] | Plant response rating, Morningglory [13, 24] | Morningglory plant response rating [13, 25] | Morningglory plant response rating [13, 21] | Plant response rating, Pigweed [14, 22] | Plant response rating, Pigweed [14, 23] | Plant response rating, Pigweed [14, 24] | Pigweed plant response rating [14, 25] | Crabgrass, Large plant response rating [15, 25] | Foxtail, Giant plant response rating [17, 25]
75: Oat, Wild plant response rating [2, 21] | Plant response rating, Wheat [6, 24]
95: Kochia plant response rating [1, 18] | Plant response rating, Ragweed [4, 19] | Plant response rating, Ragweed [4, 23] | Ragweed plant response rating [4, 21] | Plant response rating, Waterhemp [5, 22] | Plant response rating, Velvetleaf [9, 20] | Galium plant response rating [10, 18] | Plant response rating, Galium [10, 23] | Plant response rating, Oilseed Rape [11, 24] | Oilseed Rape plant response rating [11, 25] | Barnyardgrass plant response rating [12, 25] | Morningglory plant response rating [13, 18] | Plant response rating, Pigweed [14, 19] | Pigweed plant response rating [14, 21] | Plant response rating, Foxtail, Giant [17, 23]
40: Plant response rating, Oilseed Rape [11, 19]
30: Plant response rating, Barnyardgrass [12, 22] | Barnyardgrass plant response rating [12, 21]
